# Like-named read-outs stand apart in the source and are kept apart here.
# Columns and labels:
# [1] = system: Cushing's syndrome patients; settings: in vivo
# Method: The risk of experiencing at least one episode of hypokalemia (potassium level <3.5 mEq/L) after 7 to 14 Days of exposure to KORLYM (mifepristone) was evaluated using stepwise multivariable logistic regression and single-variable logistic regression models. The following independent factors were evaluated for potential association with hypokalemia based on the biology of the disease: total cortisol at Day 1, ACTH at Day 1, and potassium level at Day 1.
# The risk of experiencing at least one episode of hypokalemia (potassium level <3.5 mmol/L) after 28 Days of exposure to KORLYM was evaluated using stepwise multivariable logistic regression and single-variable logistic regression models. The following independent factors were evaluated for potential association with hypokalemia based on the biology of the disease: total cortisol at Day 1 and Day 14 (cort_01 and cort_14), ACTH at Day 1 and Day 14 (ACTH_01 and ACTH_14), and potassium levels at Day 1 and Day 14 (K_01 and K_14).
# Patients were defined to have severe/recurrent hypokalemia for this analysis if they had at least one value of potassium of 2.5 mmol/L or lower, or if they had recurrent hypokalemia (hypokalemia occurring during multiple visits after Day 14 visit).
# The Cushing's syndrome study reported herein was conducted in accordance with the Declaration of Helsinki and Good Clinical Practice (GCP) according to International Conference on Harmonization (ICH) guidelines.
# (§1) Dosing Schedule Dosing was started with 300 mg of mifepristone once per day for 14 days. After 14 days, if no clinical improvement was seen but the drug was well tolerated, the dose of mifepristone was increased to 600 mg once per day. After 4 weeks of dosing at 600 mg once per day, if no clinical improvement was seen but the drug was well tolerated, the dose was increased to 900 mg once per day. Dose escalation was based on weight with the maximum dose no higher than 20 mg/kg/day. […] After 4 weeks of dosing at 900 mg once per day, if no clinical improvement was seen but the drug was well tolerated, the dose was increased to 1200 mg once per day. Study duration was 24 weeks.
# Serum electrolytes, including potassium, were measured regularly throughout the study period.
# (§2) Potassium levels were obtained on every subject at either screening or the pre-drug administration baseline visit, and then also at every scheduled post-baseline visit. Potassium levels post-baseline were therefore obtained as early as day 7 and through day 210 (week 30 was the last visit and was the 6 week follow-up visit). ACTH, and cortisol were measured at six visits (week 2 (day 14), week 6 (day 42), week 10 (day 70), week 16 (day 112), and week 24 (day 168) week 6 follow-up (day 210)).
# [2] = system: cortisol; assay: Total serum cortisol during mifepristone treatment of Cushing's syndrome patients; assay type: in vivo, human
# Source text: (§3) The term “measuring the level,” in the context of cortisol, ACTH, mifepristone, or other compounds, refers to determining, detecting, or quantitating the amount, level, or concentration of, for example, cortisol, ACTH, mifepristone, or other compound in a sample obtained from a subject. Plasma or serum samples are often used for measuring ACTH or cortisol level.
# (§4) The types of samples that are suitable for cortisol determination can be serum, plasma, saliva, urine, or any other biological fluid taken from a subject. In preferred embodiments, the sample is a serum sample, or is a plasma sample. The level of cortisol can be measured using various methods, including but not limited to, immunoassays, e.g., competitive immunoassay, radioimmunoassay (MA), immunofluorometric enzyme assay, and ELISA; competitive protein-binding assays; liquid chromatography (e.g., HPLC); and mass spectrometry, e.g., high-performance liquid chromatography/triple quadrupole-mass spectrometry (LC-MS/MS). In preferred embodiments, cortisol levels are measured using LC-MS/MS, such as performed by Quest Diagnostics (Secaucus, N.J. 07094).
# Dosing Schedule Dosing was started with 300 mg of mifepristone once per day for 14 days. After 14 days, if no clinical improvement was seen but the drug was well tolerated, the dose of mifepristone was increased to 600 mg once per day. After 4 weeks of dosing at 600 mg once per day, if no clinical improvement was seen but the drug was well tolerated, the dose was increased to 900 mg once per day. Dose escalation was based on weight with the maximum dose no higher than 20 mg/kg/day. […]
# Potassium levels were obtained on every subject at either screening or the pre-drug administration baseline visit, and then also at every scheduled post-baseline visit. […] ACTH, and cortisol were measured at six visits (week 2 (day 14), week 6 (day 42), week 10 (day 70), week 16 (day 112), and week 24 (day 168) week 6 follow-up (day 210)).
# [3] = system: mifepristone treated subjects (PMD and Alzheimer's trials); assay: Completed PMD and Alzheimer's trials together: clinically meaningful hypokalemia; assay type: in vivo, human; settings: 16 of 821 mifepristone treated subjects
# Source text: (§5) Clinically meaningful hypokalemia (<3.1) has been reported in 16 of 821 (1.9%) mifepristone treated subjects (12 in completed double blind PMD trials, and 4 in a completed Alzheimer's trial), and in 5 of 626 (0.8%) placebo treated subjects in completed PMD trials.
# [4] = system: psychotic major depression (PMD) subjects; assay: Double blind psychotic major depression (PMD) trials: hypokalemia; assay type: in vivo, human; settings: completed double blind PMD trials
# Source text: as §5
# [5] = system: Cushing's syndrome patients; settings: cited from earlier work
# [6] = system: healthy volunteers; assay: Previous clinical studies in healthy volunteers: adverse events; assay type: in vivo, human
# Source text: Hypokalemia and rash appear to be more common in subjects receiving mifepristone than in the control groups.
# [7] = system: cortisol; assay: 24-hour urine cortisol during mifepristone treatment of Cushing's syndrome patients; assay type: in vivo, human
# Method: as §1, §2
# [8] = system: ACTH; assay: ACTH levels during mifepristone treatment of Cushing's syndrome patients; assay type: in vivo, human
# Source text: as §3
# as §4, with “ACTH” for “cortisol”, “(LC-MS/MS). Commercial kits for measuring ACTH are readily available, e.g., from Mayo clinic (Test ID: ACTH), Siemens Healthcare Global (Immulite® 2000 ACTH assay), and Roche Molecular Diagnostics (Catalog No. 03255751190).” for “(LC-MS/MS).”, “a radioimmunoassay (RIA), most preferable a two-site MA,” for “LC-MS/MS,”
# as §1, §2
# [9] = system: subjects in an Alzheimer's study; assay: Alzheimer's study: hypokalemia; assay type: in vivo, human
# Source text: as §5
# [10] = 43 subjects with Cushing's disease
# [11] = patients who did not experience hypokalemia
structure (smiles),measurement,setting,value
"CC#C[C@]1(O)CC[C@H]2[C@@H]3CCC4=CC(=O)CCC4=C3[C@@H](c3ccc(N(C)C)cc3)C[C@@]21C [mifepristone, 11β-(4-dimethylaminophenyl)-17β-hydroxy-17α-(1-propynyl)-estra-4,9-dien-3-one]",Severe/Recurrent Hypokalemia,"[1]; both, human",9 (20.0) n (%)
same,developed hypokalemia on or after Day 28,"[1]; both, human",6.7%
same,developed severe/recurrent hypokalemia on or after Day 28,"[1]; both, human",6.7%
same,subjects with a Potassium value ≤3.5 mmol/L at any of the six visits,"[1]; both, human",21
same,subjects with a Potassium value ≤3.5 mmol/L at any post-baseline visit,"[1]; both, human",23
same,Number with Hypokalemia (%) (Potassium ≤ 3.4 mEq/L),"[1]; both, human, 6 weeks",7 (14%)
same,Number with Hypokalemia (%) (Potassium ≤ 3.4 mEq/L),"[1]; both, human, 8 weeks",4 (8%)
same,Number with Hypokalemia (%) (Potassium ≤ 3.4 mEq/L),"[1]; both, human, 10 weeks",4 (8%)
same,Number with Hypokalemia (%) (Potassium ≤ 3.4 mEq/L),"[1]; both, human, 12 weeks",3 (6%)
same,Number with Severe Hypokalemia (%) (Potassium ≤ 2.5 mEq/L),"[1]; both, human, 12 weeks",1 (2%)
same,Number with Hypokalemia (%) (Potassium ≤ 3.4 mEq/L),"[1]; both, human, 16 weeks",5 (10%)
same,Number with Severe Hypokalemia (%) (Potassium ≤ 2.5 mEq/L),"[1]; both, human, 16 weeks",1 (2%)
same,Number with Hypokalemia (%) (Potassium ≤ 3.4 mEq/L),"[1]; both, human, 20 weeks",1 (2%)
same,Decreased potassium observed during at least one visit,"[1]; both, human, 24 weeks",about 30%
same,Number with Hypokalemia (%) (Potassium ≤ 3.4 mEq/L),"[1]; both, human, 24 weeks",4 (8%)
same,developed hypokalemia after dosing with KORLYM,"[1]; both, human, 24 weeks",42.9%
same,Number with Hypokalemia (%) (Potassium ≤ 3.4 mEq/L),"[1]; both, human, 30 weeks",3 (6%)
same,Number with Severe Hypokalemia (%) (Potassium ≤ 2.5 mEq/L),"[1]; both, human, 30 weeks",1 (2%)
same,Number with Hypokalemia (%) (Potassium ≤ 3.4 mEq/L),"[1]; both, human, 1 day",2 (4%)
same,Number with Hypokalemia (%) (Potassium ≤ 3.4 mEq/L),"[1]; both, human, 7 day",2 (4%)
same,Number with Hypokalemia (%) (Potassium ≤ 3.4 mEq/L),"[1]; both, human, 14 day",8 (16%)
same,Number with Severe Hypokalemia (%) (Potassium ≤ 2.5 mEq/L),"[1]; both, human, 14 day",1 (2%)
same,"share of subjects with a Potassium value ≤3.5 mmol/L as early as day 14, all post-baseline values","[1]; both, human, 14 days",48%
same,share of those subjects with a Potassium value ≤3.5 mmol/L as early as day 14,"[1]; both, human, 14 days",38%
same,Number with Hypokalemia (%) (Potassium ≤ 3.4 mEq/L),"[1]; both, human, 28 day",10 (20%)
same,Number of Subjects Hypokalemic <=3.5 mmol/L,"[1]; both, human, 210 day",3
same,Number of Subjects Non-Hypokalemic >3.5 mmol/L,"[1]; both, human, 210 day",37
same,patients with at least one potassium value of 2.5 mmol/L or lower,[1],two
same,severity of hypokalemia,[1],generally mild to moderate
same,subjects with a day 7 Potassium value ≤3.5 mmol/L,[1],three
same,change of serum cortisol during mifepristone treatment,[2]; [10],increased to a smaller degree
same,total serum cortisol levels,"[2]; patients who did not experience hypokalemia, early on during mifepristone treatment (e.g., day 14 and/or day 42)",below 1000 nmol/L
same,total serum cortisol levels,"[2]; patients who experienced hypokalemia, early on during mifepristone treatment (e.g., day 14 and day 42)",above 1000 nmol/L
same,Clinically meaningful hypokalemia (<3.1),[3],1.9%
same,subjects with clinically meaningful hypokalemia (<3.1),[4],12
same,patients with serum potassium levels less than 3.5 mEq/L,[5]; of 43 Cushing's syndrome patients treated with mifepristone,22
same,patients with serum potassium levels less than 2.5 mEq/L (severe hypokalemia),[5]; of the 22 of 43 patients with potassium <3.5 mEq/L,3
same,frequently reported adverse events,[6]; mifepristone administered to healthy volunteers,"headache, gastrointestinal symptoms including diarrhea, nausea and vomiting, and rash"
same,Hypokalemia and rash compared with the control groups,[6]; subjects receiving mifepristone,more common
same,"24 Hour Urine Cortisol (nmol/24 hr)/ACTH Ratio Visit Values, Mean ± SD","[7]; Day 42, Non-Hypokalemic (N 35)",7.9 ± 6.0 (35)
same,"24 Hour Urine Cortisol (nmol/24 hr)/ACTH Ratio Visit Values, Mean ± SD","[7]; Day 70, Non-Hypokalemic (N 30)",17.0 ± 32.7 (30)
same,"24 Hour Urine Cortisol (nmol/24 hr)/ACTH Ratio Visit Values, Mean ± SD","[7]; Day 112, Non-Hypokalemic (N 23)",9.6 ± 16.3 (23)
same,ratios of 24-hour urine cortisol values divided by ACTH values,[7]; patients experiencing hypokalemia,greater than 20
same,ratios of 24-hour urine cortisol values divided by ACTH values,[7]; [11],less than 20
same,24 hour urine cortisol levels,"[7]; patients who did not experience hypokalemia, at all times during mifepristone treatment",below 1700 nmol/24 hr
same,24-hour urine cortisol levels,[7]; patients who experienced hypokalemia,above 2000 nmol/24 hr
same,change in 24-hour urine cortisol levels as compared to baseline,"[7]; patients who experienced hypokalemia, day 42",greater than 600 nmol/24 hr
same,change of ACTH during mifepristone treatment,[8]; [10],increased about two-fold
same,"Ratio of ACTH Visit Change Values from Baseline per Baseline (ACTH_CHG/ACTH Baseline), Mean ± SD","[8]; Day 42, Hypokalemic (N 6)",2.50 ± 0.61 (6)
same,"Ratio of ACTH Visit Change Values from Baseline per Baseline (ACTH_CHG/ACTH Baseline), Mean ± SD","[8]; Day 168, Hypokalemic (N 5)",3.30 ± 2.54 (5)
same,rise of ACTH levels following an initial increase in mifepristone dose (FIG. 1),[8]; [11],about 25 pg/mL
same,subjects with clinically meaningful hypokalemia (<3.1),[9]; completed Alzheimer's trial,4
same,subjects with hypokalemia in the range of 2.8 to 3.5 mEq/L,"[9]; out of 33 subjects, 300 mg per day of mifepristone for 16 weeks",9

# — patent US11744837B2, “Use of cortisol in assessment and prophylactic treatment of hypokalemia associated with glucocorticoid receptor modulator treatment of Cushing's syndrome patients” (Corcept Therapeutics, Inc., priority 2018, dated 2023)
